In patent US11390609B2, “Rho-associated protein kinase inhibitor, pharmaceutical composition comprising same, and preparation method and use thereof” (BEIJING TIDE PHARMACEUTICAL CO., LTD., priority 2017, dated 2022):

Target: ROCK1 (Homo sapiens (Human), UniProt Q13464)
Assay: ROCK1 kinase IC50 assay (biological test method similar to the ROCK2 assay)
Type: biochemical
Experimental: The kinase IC50 was determined by a commercialized CISBIO kinase detection kit, HTRF KinEASE-STK S2 kit (62ST2PEC). ROCK2 (01-119) employed in the reaction was purchased from Carna Biosciences.
Before the assay, the following working solutions as needed were formulated with corresponding reagents according to the instruction of the kinase detection kit: 1×kinase buffer, 5×STK-52 substrate working solution (1.5 μM) and 5×ATP working solution (1.5 μM), 5×ROCK2 kinase working solution, 4×Streptavidin-XL665 working solution, and 4×STK-Ab-Cryptate 2 detection solution. Then the assay was performed according to the following procedure.
A solution of a compound at a concentration of 10000 nM was prepared with the 1×kinase buffer containing 2.5% DMSO. Gradient dilution of the solution of the compound was performed with the kinase buffer containing DMSO, so as to obtain solutions of a test compound at 9 different concentrations. In addition to wells of test compounds, a positive well (containing all the reagents except the compound) and a negative well (containing all the reagents except the test compound and kinase) were set. Except for the control wells (positive and negative wells), a solution of a test compound (4 μL) was added to each of the reaction wells, and a solution of 2.5% DMSO was added to the control wells. Then the substrate ([…], 2 μL. 5×STK-S2 substrate working solution) was added to each of the reaction wells. The 5×ROCK2 kinase working solution (2 μL, containing 1.4 ng ROCK2 kinase) was added to each of the reaction wells except for the negative well, the volume of which was made up with the 1×kinase buffer (2 μL). The 5×ATP working solution (2 μL) was added to each of the reaction wells, and the mixtures were incubated at room temperature for 2 hours. After the kinase reaction was complete, the 4×Streptavidin-XL665 working solution was added to each of the reaction wells, the solutions were mixed, followed by immediate addition of the 4×STK-Ab-Cryptate 2 detection solution (5 μL), and the mixtures were incubated at room temperature for 1 hour. The fluorescence signal was read on ENVISION (Perkinelmer) (excitation wavelength: 320 nm, and emission wavelength: 665 nm and 615 nm). The inhibitory rate in each well was calculated based on the fluorescence intensity value: ER (Emission Ratio)=(fluorescence intensity at 665 nm/fluorescence intensity at 615 nm); inhibitory rate=(ERpositive−ERtest compound)/(ERpositive−ERnegative)*100%. Curves were plotted and fitted to obtain the median inhibitory concentration (IC50) of each teat compound with the PRISM 5.0 software.
According to a biological test method similar to the above, the IC50 values of the compounds on ROCK1 were tested.

ROCK1, sequence (Q13464 whole entry, species assumed): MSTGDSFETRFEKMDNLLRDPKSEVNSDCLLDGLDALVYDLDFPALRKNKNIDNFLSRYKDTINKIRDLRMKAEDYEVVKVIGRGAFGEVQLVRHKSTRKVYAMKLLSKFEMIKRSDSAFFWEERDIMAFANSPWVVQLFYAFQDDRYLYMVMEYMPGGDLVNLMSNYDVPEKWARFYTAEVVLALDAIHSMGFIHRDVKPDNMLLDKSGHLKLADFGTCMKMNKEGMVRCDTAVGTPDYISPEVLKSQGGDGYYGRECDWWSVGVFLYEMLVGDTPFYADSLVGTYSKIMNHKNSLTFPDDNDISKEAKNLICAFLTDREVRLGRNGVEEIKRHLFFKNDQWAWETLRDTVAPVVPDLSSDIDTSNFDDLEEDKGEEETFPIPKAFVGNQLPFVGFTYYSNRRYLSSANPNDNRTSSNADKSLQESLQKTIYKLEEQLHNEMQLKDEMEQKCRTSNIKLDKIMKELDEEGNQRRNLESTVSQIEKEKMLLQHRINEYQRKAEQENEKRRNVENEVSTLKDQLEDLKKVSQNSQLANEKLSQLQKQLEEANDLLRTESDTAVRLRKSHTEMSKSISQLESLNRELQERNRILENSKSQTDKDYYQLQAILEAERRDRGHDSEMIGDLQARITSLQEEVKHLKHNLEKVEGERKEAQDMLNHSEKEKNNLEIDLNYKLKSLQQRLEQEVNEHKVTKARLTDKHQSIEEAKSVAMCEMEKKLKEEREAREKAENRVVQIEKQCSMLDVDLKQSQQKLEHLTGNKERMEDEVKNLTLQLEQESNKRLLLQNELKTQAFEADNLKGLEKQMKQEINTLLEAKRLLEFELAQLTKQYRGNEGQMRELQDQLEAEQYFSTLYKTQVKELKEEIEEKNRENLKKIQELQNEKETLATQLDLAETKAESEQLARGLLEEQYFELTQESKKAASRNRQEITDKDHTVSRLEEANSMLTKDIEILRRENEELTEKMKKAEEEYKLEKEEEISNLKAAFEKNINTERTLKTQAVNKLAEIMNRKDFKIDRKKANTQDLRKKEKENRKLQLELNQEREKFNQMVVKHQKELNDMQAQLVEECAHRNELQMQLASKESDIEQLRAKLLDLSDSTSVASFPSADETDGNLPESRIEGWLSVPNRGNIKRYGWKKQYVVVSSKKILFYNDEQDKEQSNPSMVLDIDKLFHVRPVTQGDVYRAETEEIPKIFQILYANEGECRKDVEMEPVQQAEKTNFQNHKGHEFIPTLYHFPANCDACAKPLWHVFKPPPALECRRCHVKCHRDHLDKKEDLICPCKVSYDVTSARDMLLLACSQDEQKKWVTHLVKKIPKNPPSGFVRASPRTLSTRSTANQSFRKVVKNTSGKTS

Compound	IC50 [µM]
CC(C)NC(=O)C1COc2ccc(-c3nccc(Nc4ccc5[nH]ncc5c4)n3)cc2O1 (stereo not shown) [TDI01103, 7-(4-((1H-indazol-5-yl)amino)pyrimidin-2-yl)-N-isopropyl-2,3-dihydrobenzo[b][1,4]dioxine-2-carboxamide]	2.06
CC(C)NC(=O)c1cc2ccc(-c3nccc(Nc4ccc5[nH]ncc5c4)n3)cc2s1 [TDI01104, 6-(4-((1H-indazol-5-yl)amino)pyrimidin-2-yl)-N-isopropylben-zo[b]thiophene-2-carboxamide]	0.87
CNC(=O)c1cc2ccc(-c3nccc(Nc4ccc5[nH]ncc5c4)n3)cc2s1 [TDI01109, 6-(4-((1H-indazol-5-yl)amino)pyrimidin-2-yl)-N-methylben-zo[b]thiophene-2-carboxamide]	> 10
CN(C)C(=O)c1cc2ccc(-c3nccc(Nc4ccc5[nH]ncc5c4)n3)cc2s1 [TDI01110, 6-(4-((1H-indazol-5-yl)amino)pyrimidin-2-yl)-N, N-dimethylben-zo[b]thiophene-2-carboxamide]	> 10
O=C(NC1CC1)c1cc2ccc(-c3nccc(Nc4ccc5[nH]ncc5c4)n3)cc2s1 [TDI01111, 6-(4-((1H-indazol-5-yl)amino)pyrimidin-2-yl)-N-cyclopropylben-zo[b]thiophene-2-carboxamide]	1.41
O=C(NC1CCOC1)c1cc2ccc(-c3nccc(Nc4ccc5[nH]ncc5c4)n3)cc2s1 (stereo not shown) [TDI01113, 6-(4-((1H-indazol-5-yl)amino)pyrimidin-2-yl)-N-(tetrahydrofuran-3-yl)benzo[b]thiophene-2-carboxamide]	0.554
O=C(Nc1ccnnc1)c1cc2ccc(-c3nccc(Nc4ccc5[nH]ncc5c4)n3)cc2s1 [TDI01116, 6-(4-((1H-indazol-5-yl)amino)-pyrimidin-2-yl)-N-(pyridazin-4-yl)benzo[b]-thiophene-2-carboxamide]	> 10
CC(C)NC(=O)c1cc2ccc(-c3nc(Nc4ccc5[nH]ncc5c4)c4ccn(CCN(C)C)c4n3)cc2s1 [TDI01122, 6-(4-((1H-indazol-5-yl)amino)-7-(2-(dimethylami-no)ethyl)-7H-pyrrolo[2,3-d]pyrimidin-2-yl)-N-isopropylben-zo[b]thiophene-2-carboxamide]	3.27
Cn1cc(NC(=O)c2cc3ccc(-c4nccc(Nc5ccc6[nH]ncc6c5)n4)cc3[nH]2)cn1 [TDI01134, 6-(4-((1H-indazol-5-yl)amino)-pyrimidin-2-yl)-N-(1-methyl-1H-pyrazol-4-yl)-1H-indole-2-carboxamide]	1.37
CC(C)NC(=O)c1cc2ccc(-c3nc(Nc4ccc5[nH]ncc5c4)c4occc4n3)cc2s1 [TDI01135, 6-(4-((1H-indazol-5-yl)amino)furo[3,2-d]pyrimidin-2-yl)-N-isopropylben-zo[b]thiophene-2-carboxamide]	3
CC(C)NC(=O)c1cc2ccc(-c3nc(Nc4ccc5[nH]ncc5c4)c4sccc4n3)cc2s1 [TDI01136, 6-(4-((1H-indazol-5-yl)amino)thieno[3,2-d]pyrimidin-2-yl)-N-isopropylben-zo[b]thiophene-2-carboxamide]	0.827
CC(C)NC(=O)c1cc2ccc(-c3nc(Nc4ccc5[nH]ncc5c4)c4sccc4n3)cc2[nH]1 [TDI01141, 6-(4-((1H-indazol-5-yl)amino)thieno[3,2-d]pyrimidin-2-yl)-N-isopropyl-1H-indole-2-carboxamide]	0.839
CC(C)NC(=O)c1cc2ccc(-c3nc(Nc4ccc5[nH]ncc5c4)c4cc[nH]c4n3)cc2[nH]1 [TDI01143, 6-(4-((1H-indazol-5-yl)amino)-7H-pyrrolo[2,3-d]pyrimidin-2-yl)-N-isopropyl-1H-indole-2-carboxamide]	1.48
CC(C)NC(=O)c1cc2ccc(-c3nc(Nc4ccc5[nH]ncc5c4)c4scnc4n3)cc2[nH]1 [TDI01149, 6-(7-((1H-indazol-5-yl)ami-no)thiazolo[4,5-d]pyrimidin-5-yl)-N-isopropyl-1H-indole-2-carboxamide]	1.32
O=C(NC1CC1)c1cc2ccc(-c3nccc(Nc4ccc5[nH]ncc5c4)n3)cc2[nH]1 [TDI01151, 6-(4-((1H-indazol-5-yl)amino)-pyrimidin-2-yl)-N-cyclopropyl-1H-indole-2-carboxamide]	0.892
O=C(Nc1ccnnc1)c1cc2ccc(-c3nccc(Nc4ccc5[nH]ncc5c4)n3)cc2[nH]1 [TDI01152, 6-(4-((1H-indazol-5-yl)amino)-pyrimidin-2-yl)-N-(pyridazin-4-yl)-1H-indole-2-carboxaniide]	> 10
O=C(Nc1ccncc1)c1cc2ccc(-c3nccc(Nc4ccc5[nH]ncc5c4)n3)cc2[nH]1 [TDI01153, 6-(4-((1H-indazol-5-yl)amino)-pyrimidin-2-yl)-N-(pyridin-4-yl)-1H-indole-2-carboxamide]	2.72
O=C(Nc1cnoc1)c1cc2ccc(-c3nccc(Nc4ccc5[nH]ncc5c4)n3)cc2[nH]1 [TDI01156, 6-(4-((1H-indazol-5-yl)amino)-pyrimidin-2-yl)-N-(isoxazol-4-yl)-1H-indole-2-carboxamide]	1.99
O=C(Nc1cnccn1)c1cc2ccc(-c3nccc(Nc4ccc5[nH]ncc5c4)n3)cc2[nH]1 [TDI01160, 6-(4-((1H-indazol-5-yl)amino)pyrimidin-2-yl)-N-(pyrazin-2-yl)-1H-indole-2-carboxamide]	2.24
O=C(Nc1ccncn1)c1cc2ccc(-c3nccc(Nc4ccc5[nH]ncc5c4)n3)cc2[nH]1 [TDI01161, 6-(4-((1H-indazol-5-yl)amino)-pyrimidin-2-yl)-N-(pyrimidin-4-yl)-1H-indole-2-carboxamide]	> 10
O=C(Nc1ccnnc1)c1cc2ccc(-c3nc(Nc4ccc5[nH]ncc5c4)cc4nccn34)cc2[nH]1 [TDI01164, 6-(7-((1H-indazol-5-yl)amino)-imidazo[1,2-c]pyrimidin-5-yl)-N-(pyridazin-4-yl)-1H-indole-2-carboxamide]	> 10

The next lines start with the values.

IC50 [µM]	Compound
> 10	O=C(Nc1ccnnc1)c1cc2ccc(-c3ncnc(Nc4ccc5[nH]ncc5c4)n3)cc2[nH]1 [TDI01167, 6-(4-((1H-indazol-5-yl)amino)-1,3,5-triazin-2-yl)-N-(pyridazin-4-yl)-1H-indole-2-carboxamide]
5.19	O=C(Nc1ccnnc1)c1cc2ccc(-c3nc(Nc4ccc5[nH]ncc5c4)c4sccc4n3)cc2[nH]1 [TDI01175, 6-(4-((1H-indazol-5-yl)amino)-thieno[3,2-d]pyrimidin-2-yl)-N-(pyridazin-4-yl)-1H-indole-2-carboxamide]
0.521	CC(CO)NC(=O)c1cc2ccc(-c3nccc(Nc4ccc5[nH]ncc5c4)n3)cc2[nH]1 (stereo not shown) [TDI01176, 6-(4-((1H-indazol-5-yl)amino)-pyrimidin-2-yl)-N-(1-hydroxypropan-2-yl)-1H-indole-2-carboxamide]
2.78	O=C(Nc1ccnnc1Cl)c1cc2ccc(-c3nccc(Nc4ccc5[nH]ncc5c4)n3)cc2[nH]1 [TDI01180]
0.947	O=C(Nc1cnncc1Cl)c1cc2ccc(-c3nccc(Nc4ccc5[nH]ncc5c4)n3)cc2[nH]1 [TDI01181, 6-(4-((1H-indazol-5-yl)amino)-pyrimidin-2-yl)-N-(5-chloropridazin-4-yl)-1H-indole-2-carboxamide]
0.712	O=C(Nc1ccc2[nH]ncc2c1)c1cc2ccc(-c3nccc(Nc4ccc5[nH]ncc5c4)n3)cc2[nH]1 [TDI01182, 6-(4-((1H-indazol-5-yl)amino)-pyrimidin-2-yl)-N-(1H-indazol-5-yl)-1H-indole-2-carboxamide]
1.28	O=C(Nc1ccnnc1)c1cc2cc(-c3nccc(Nc4ccc5[nH]ncc5c4)n3)ccc2[nH]1 [TDI01188, 5-(4-((1H-indazol-5-yl)amino)-pyrimidin-2-yl)-N-(pyridazin-4-yl)-1H-indole-2-carboxamide]
2.53	O=C(Nc1ccnnc1)c1c[nH]c2ccc(-c3nccc(Nc4ccc5[nH]ncc5c4)n3)cc12 [TDI01191, 5-(4-((1H-indazol-5-yl)amino)-pyrimidin-2-yl)-N-(pyridazin-4-yl)-1H-indole-3-carboxamide]
1.1	O=C(Nc1cn[nH]c1)c1cc2ccc(-c3nccc(Nc4ccc5[nH]ncc5c4)n3)cc2[nH]1 [TDI01199, 6-(4-((1H-indazol-5-yl)amino)-pyrimidin-2-yl)-N-(1H-pyrazol-4-yl)-1H-indole-2-carboxamide]
0.559	CC(C)(C)OC(=O)n1cc(NC(=O)c2cc3ccc(-c4nccc(Nc5ccc6[nH]ncc6c5)n4)cc3[nH]2)cn1 [TDI01200, tert-butyl 4-(6-(4-((1H-indazol-5-yl)amino)-pyrimidin-2-yl)-1H-indole-2-carboxamido)-1H-pyrazole-1-carboxylate]
